Experimental data reported in publication PMC8305101, “Synthesis and Cytotoxicity Evaluation of Spirocyclic Bromotyrosine Clavatadine C Analogs” (Marine Drugs, 2021).
Where “and” joins values, the source holds several entries; their conditions need not be identical. Equal values may be shown once. Read-outs that look alike come from different tables or passages of the source.

Experiments:
[1] = tested on: human malignant melanoma A-375 cell line; assay: Cytotoxicity in A-375 melanoma cells (CellTiter-Glo ATP viability); format: cell-based; details: for CC50 / cytotoxicity at 50 µM: Homo sapiens; for CC50: read-out: CC50 (µM) in A-375 Cells; for Selectivity Index (SI): ratio of CC50 values between Hs27 fibroblasts and A-375 melanoma cells, SD in parentheses
Experimental: (§1) Analysis of selectivity to cancer cells. The cells were seeded to white frame and clear bottom 96-well plates (Perkin Elmer) at a density of 10,000 cells/well for the human malignant melanoma A-375 cell line (ATCC CRL-1619) and 7500 cells/well for the human skin fibroblast Hs27 cell line (ATCC CRL-1634). The cells were grown at 37 °C, 5% CO2 until they reached 70–80% confluence (approximately 24 h). Stock solutions of test compounds and a positive control (camptothecin, Sigma-Aldrich, St. Louis, MO, USA) were prepared in DMSO and diluted into the assay medium (growth medium with 5% FBS) to the final concentration. Final DMSO concentration was 0.5% in all samples. The culture medium was removed from the plate and compounds added, 200 µL/well. After a 48-h incubation, the amount of ATP, which is directly proportional to the number of viable cells present in culture, was quantified using CellTiter-Glo® Luminescent Cell Viability kit (Promega, Madison, WI, USA), according to manufacturer’s instructions. Origin Graphing and Analysis, version 9.55 (OriginLab, Northampton, MA, USA), was used for determination of CC50 values. The cancer cell selectivity index was calculated as a ratio of CC50 values between Hs27 fibroblasts and A-375 melanoma cells. Standard deviation of selectivity indices was calculated using Equation (1) (1) σ(x¯/y¯)=(σ(x)/x¯)^2+(σ(y)/y¯)^2

[2] = Cytotoxicity in Hs27 normal skin fibroblasts (CellTiter-Glo ATP viability); format: cell-based; details: human, 48-h incubation, mean (SD) of 2–3 independent experiments in triplicate
Experimental: as §1

[3] = A-375, 48 h, read-out: Primary Test Results (Cytotoxicity % at 50 µM in A-375 Cells), 50 µM, A-375 cells, 48-h incubation, single experiment with three technical replicates
[4] = read-out: CC50 (µM) in Hs27 Cells
[5] = 50 µM, A-375 cells, 48-h incubation, single experiment with three technical replicates

Row | Molecule | CC50 ([1]; A-375, 48 h) [µM] | cytotoxicity at 50 µM [1, 3] [%] | Selectivity Index (SI) [1] | CC50 at 48 h [2, 4] [µM] | cytotoxicity at 50 µM ([1]; 50 µM, A-375 cells, 48-h incubation, single experiment with three technical replicates, read-out: Primary Test Results (Cytotoxicity % at 50 µM in A-375 Cells)) [%] | CC50 ([1]; A-375 cells, 48-h incubation, mean (SD) of 2–3 independent experiments in triplicate) [µM] | CC50 at 48 h ([2]; Hs27 skin fibroblast cells) [µM] | Primary Test Results (Cytotoxicity % at 50 µM in A-375 Cells) [1, 5]
1 | O=C1C=CC2(C=C1)CC(C(=O)NNC(=O)c1ccccn1)=NO2 [Compound 37, 8-Oxo-N’-picolinoyl-1-oxa-2-azaspiro[4.5]deca-2,6,9-triene-3-carbohydrazide] | 2.5 | 89.3 | 2.4 (0.3) | 6 | – | – | – | –
2 | O=C1C=CC2(C=C1)CC(C(=O)NCCc1c[nH]c3ccccc13)=NO2 [Compound 22, N-[2-(1H-Indol-3-yl)ethyl]-8-oxo-1-oxa-2-azaspiro[4.5]deca-2,6,9-triene-3-carboxamide] | 0.7 | 99.8 | 1.0 (0.3) | 0.7 | – | – | – | –
3 | CN(C)C(=O)C1=NOC2(C=C(Br)C(=O)C(Br)=C2)C1 [Compound 13, 7,9-Dibromo-N,N-dimethyl-8-oxo-1-oxa-2-azaspiro[4.5]deca-2,6,9-triene-3-carboxamide] | 3.7 | 99.8 | – | 7.2 | – | – | – | –
4 | O=C(Nc1ccccn1)C1=NOC2(C=C(Br)C(=O)C(Br)=C2)C1 [Compound 29, 7,9-Dibromo-8-oxo-N-(pyridin-2-yl)-1-oxa-2-azaspiro[4.5]deca-2,6,9-triene-3-carboxamide] | 2.4 | 101 | 2.4 (0.4) | 5.8 | – | – | – | –
5 | Cn1nc(-c2ccc(Cl)cc2)cc1NC(=O)C1=NOC2(C=C(Br)C(=O)C(Br)=C2)C1 [Compound 41, 7,9-Dibromo-N-[3-(4-chlorophenyl)-1-methyl-1H-pyrazol-5-yl]-8-oxo-1-oxa-2-azaspiro[4.5]deca-2,6,9-triene-3-carboxamide] | 1.3 | 97.6 | 1.1 (0.8) | 1.4 | – | – | – | –
6 | CNCCCOc1c(Br)cc(CCNC(=O)/C(Cc2cc(Br)c(OC)c(Br)c2)=N/O)cc1Br [Purpurealidin I 3, Purpurealidin I, reference compound] | – | – | 1.3 (0.1) | – | 98.9 | 3.7 | 4.7 | –
7 | O=C(NNC(=O)c1ccccn1)C1=NOC2(C=C(Br)C(=O)C(Br)=C2)C1 [Compound 38, 7,9-Dibromo-8-oxo-N’-picolinoyl-1-oxa-2-azaspiro[4.5]deca-2,6,9-triene-3-carbohydrazide] | 12.3 | 93.5 | 0.5 (0.5) | 6.4 | – | – | – | –
8 | COc1ccc(CNC(=O)C2=NOC3(C=CC(=O)C=C3)C2)cc1 [Compound 23, N-(4-Methoxybenzyl)-8-oxo-1-oxa-2-azaspiro[4.5]deca-2,6,9-triene-3-carboxamide] | 1.2 | 100 | 1.2 (0.6) | 1.4 | – | – | – | –
9 | COc1ccc(CCNC(=O)C2=NOC3(C=CC(=O)C=C3)C2)cc1 [Compound 25, N-(4-Methoxyphenethyl)-8-oxo-1-oxa-2-azaspiro[4.5]deca-2,6,9-triene-3-carboxamide] | 1.2 | 100 | 1.7 (0.3) | 2 | – | – | – | –
10 | CC(C)N(C)C(=O)C1=NOC2(C=C(Br)C(=O)C(Br)=C2)C1 [Compound 14, 7,9-Dibromo-N-isopropyl-N-methyl-8-oxo-1-oxa-2-azaspiro[4.5]deca-2,6,9-triene-3-carboxamide] | 7.2 | 99.9 | – | 7.8 | – | – | – | –
11 | O=C(NCc1cccnc1)C1=NOC2(C=C(Br)C(=O)C(Br)=C2)C1 [Compound 36, 7,9-Dibromo-8-oxo-N-(pyridin-3-ylmethyl)-1-oxa-2-azaspiro[4.5]deca-2,6,9-triene-3-carboxamide] | 3.4 | 101 | 1.8 (0.2) | 6.1 | – | – | – | –
12 | O=C(Nc1ccc(C(F)(F)F)nc1)C1=NOC2(C=C(Br)C(=O)C(Br)=C2)C1 [Compound 31, 7,9-Dibromo-8-oxo-N-[6-(trifluoromethyl)pyridin-3-yl]-1-oxa-2-azaspiro[4.5] deca-2,6,9-triene-3-carboxamide] | 5.3 | 98.6 | 0.4 (0.1) | 2.1 | – | – | – | –
13 | O=C1C=CC2(C=C1)CC(C(=O)Nc1cccnc1)=NO2 [Compound 26, 8-Oxo-N-(pyridin-3-yl)-1-oxa-2-azaspiro[4.5]deca-2,6,9-triene-3-carboxamide] | 2 | 99.2 | 1.0 (0.8) | 1.9 | – | – | – | –
14 | O=C1C=CC2(C=C1)CC(C(=O)N1CCC(O)CC1)=NO2 [Compound 16, 3-(4-Hydroxypiperidine-1-carbonyl)-1-oxa-2-azaspiro[4.5]deca-2,6,9-trien-8-one] | 4.9 | 97.1 | 1.5 (0.2) | 7.4 | – | – | – | –
15 | O=C1C=CC2(C=C1)CC(C(=O)NCc1cccnc1)=NO2 [Compound 35, 8-Oxo-N-(pyridin-3-ylmethyl)-1-oxa-2-azaspiro[4.5]deca-2,6,9-triene-3-carboxamide] | 1.1 | 97.5 | 2.3 (0.1) | 2.5 | – | – | – | –
16 | CN(C)C(=O)C1=NOC2(C=CC(=O)C=C2)C1 [Compound 12, N,N-Dimethyl-8-oxo-1-oxa-2-azaspiro[4.5]deca-2,6,9-triene-3-carboxamide] | 2.1 | 95.1 | 1.8 (0.6) | 3.8 | – | – | – | –
17 | N=C(N)NCCCCNC(=O)C1=NOC2(C=CC(=O)C=C2)C1 [Compound 11, N-(4-Guanidinobutyl)-8-oxo-1-oxa-2-azaspiro[4.5]deca-2,6,9-triene-3-carboxamide] | – | – | – | – | – | – | – | less than 25% and −8.2%
18 | O=C(NCCc1cccnc1)C1=NOC2(C=C(Br)C(=O)C(Br)=C2)C1 [Compound 34, 7,9-Dibromo-8-oxo-N-[2-(pyridin-3-yl)ethyl]-1-oxa-2-azaspiro[4.5]deca-2,6,9-triene-3-carboxamide] | 5.1 | 97 | 1.7 (0.6) | 8.8 | – | – | – | –
19 | O=C(Nc1cccnc1)C1=NOC2(C=C(Br)C(=O)C(Br)=C2)C1 [Compound 27, 7,9-Dibromo-8-oxo-N-(pyridin-3-yl)-1-oxa-2-azaspiro[4.5]deca-2,6,9-triene-3-carboxamide] | 3 | 101 | 2.2 (0.5) | 6.6 | – | – | – | –
20 | O=C(Nc1ccc(C(F)(F)F)cn1)C1=NOC2(C=C(Br)C(=O)C(Br)=C2)C1 [Compound 30, 7,9-Dibromo-8-oxo-N-[5-(trifluoromethyl)pyridin-2-yl]-1-oxa-2-azaspiro[4.5]-deca-2,6,9-triene-3-carboxamide] | 3.6 | 98.1 | 0.6 (0.2) | 2.3 | – | – | – | –
21 | COc1ccc(NC(=O)C2=NOC3(C=CC(=O)C=C3)C2)cc1Cl [Compound 20, N-(3-Chloro-4-methoxyphenyl)-8-oxo-1-oxa-2-azaspiro[4.5]deca-2,6,9-triene-3-carboxamide] | 1.2 | 100 | 1.3 (0.5) | 1.5 | – | – | – | –
22 | O=C(Nc1nc2c(s1)CCCC2)C1=NOC2(C=C(Br)C(=O)C(Br)=C2)C1 [Compound 42, 7,9-Dibromo-8-oxo-N-(4,5,6,7-tetrahydrobenzo[d]thiazol-2-yl)-1-oxa-2-azaspiro[4.5]deca-2,6,9-triene-3-carboxamide] | 3.5 | 97.5 | 1.3 (0.5) | 4.4 | – | – | – | –
23 | O=C(Nc1cc(Cl)cc(Cl)c1)C1=NOC2(C=C(Br)C(=O)C(Br)=C2)C1 [Compound 19, 7,9-Dibromo-N-(3,5-dichlorophenyl)-8-oxo-1-oxa-2-azaspiro[4.5]deca-2,6,9-triene-3-carboxamide] | 9.2 | 94.9 | 0.7 (0.5) | 6.8 | – | – | – | –
24 | 7,9-Dibromo-8-oxo-N’-picolinoyl-1-oxa-2-azaspiro[4.5]deca-2,6,9-triene-3-carbohydrazide [Compound 39] | – | – | – | – | – | – | – | 75.2%
25 | O=C1C=CC2(C=C1)CC(C(=O)NNC(=O)CN1CCOCC1)=NO2 [Compound 17, N’-(2-Morpholinoacetyl)-8-oxo-1-oxa-2-azaspiro[4.5]deca-2,6,9-triene-3-carbohydrazide] | – | < 25 | – | – | – | – | – | 20.8%
